# Data: US9133417B2, “Liquid cleaning and disinfecting compositions comprising an assymetrically branched amine oxide” (THE PROCTER & GAMBLE COMPANY, priority 2012, dated 2015)
# What was measured:
# Conditions in all cases: Shake Flask, 1 hour contact (T1h vs T0), incubation 32 °C 24 hours; test concentration not given
# [1] = tested on: Staphylococcus aureus (SA) CIP 4.83
# Protocol: (§1) The antibacterial efficacy was tested following the below Shake Flask protocol:
# (§2) • Microbial strains: Staphylococcus aureus (SA) CIP 4.83, Escherichia Coli (EC) CIP 53.126, Pseudomonas Aeruginosa (PA) CIP 82.113 • Culture media: TSA medium—Neutralizing medium (Dey Engley Broth)—Buffered Peptoned water (BPW-F)—Shake flask bottles—Physiological water • Incubator Shake Flask Protocol: ASTM E2149 Shake Flask Method • Inoculum counting: • For each strain, prepare an inoculum at 0.5 Mc Farland (McF). Dilute 1 ml of the inoculum with 9 ml of physiological water. Select 1 ml of the resulting dilution and dilute again with 9 ml of physiological water. Execute 5 dilution steps accordingly so that a 10^−5 dilution is obtained. • Recover 100 microliter of the 10^−5 dilution and inoculate 2 petri dishes. • Add 20 ml of TSA medium. • Incubate at 32+/−0.5° C. during 24 hours • Negative control: • Put 5 ml of SA, EC or PA inoculums into a shake flask. Add 45 ml of pure BPW-F solution. • Dilute twice in neutralizing medium: Recover 1 ml of the pure solution and add 9 ml of the neutralizing medium (=10^−1 and 10^−2 dilution). • Wait 5 minutes and put 100 microliter of the pure solution and the 10^−2 dilution into 2 petri dishes, add 20 ml of TSA medium (T0). • Do the same operation after 1 hour (T1h). • Incubate at 32+/−0:5° C. during 24 hours • Sample testing: • Prepare a solution at a specified concentration (see data tables for actual concentrations as 100% active—final volume 50 ml). For example, for a 50% (V/V), dilute 25 ml of product with 20 ml of BPW-F and 5 ml of the inoculums (SA, EC or PA) at 0.5 McF. • Dilute twice in neutralizing medium: Recover 1 ml of the pure solution and add 9 ml of the neutralizing medium (=10^−1 and 10^−2 dilution). • Wait 5 minutes and put 100 microliter of the pure solution and the 10^−2 dilution into 2 petri dishes, add 20 ml of TSA medium (T0). • Do the same operation after 1 hour (T1h). • Incubate at 32+/−0.5° C. during 24 hours • Calculation of log reduction: • The log reduction is calculated as log (T0/T1h)
# [2] = tested on: Pseudomonas Aeruginosa (PA) CIP 82.113
# Protocol: as §1, §2
# [3] = tested on: Escherichia Coli (EC) CIP 53.126
# Protocol: as §1, §2
Substance,"log reduction, log (T0/T1h), St. Aureus [1]","log reduction, log (T0/T1h), Ps Aeroginosa [2]","log reduction, log (T0/T1h), E. coli [3]"
asymmetrically branched C12-14 alkyl dimethyl amine oxide,4.06,3.98,
linear C12-14 alkyl dimethyl amine oxide [reference compound],0.73,2.10,0.41
symmetrically branched C12-14 alkyl dimethyl amine oxide,,3.29,2.6
